Measured values taken from patent publication US10144742B2 (Millennium Pharmaceuticals, Inc., priority 2014, dated 2018).
Read-outs that look alike come from different tables or passages of the source.

Key:
hNAMPT protein = hNAMPT protein (Homo sapiens (Human), UniProt P43490); assay: NAMPT enzyme assay (TR-FRET/HTRF, BodiPY ligand, anti 6His-Tb); assay type: binding; conditions: for IC50: read-out: IC50; for inhibition at 1 µM: read-out: Percent Inhibition
How it was run: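 TR-FRET binding assay in which His-tagged human NAMPT with anti-6His-Tb is displaced by compound from a BodiPY ligand, incubated 1 h at rt in the dark. Excitation was at 320 nm, with the 520/486 nm emission ratio read. IC50 was fitted from inhibition relative to DMSO controls.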

PC3 cells = assay: PC3 growth inhibition (Cell-titer glo, 72 hours); assay type: cell-based; conditions: Homo sapiens, PC-3, PC3 cells, 72 hours, Cell-titer glo, read-out: Percent Inhibition (PC3 growth inhibition); for inhibition at 1 µM: compound concentration 1 μM; for inhibition at 1.667 µM: compound concentration 1.667 μM
How it was run: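 PC3 cells in RPMI1640 seeded overnight at 37 °C, 5% CO2, then exposed to compound diluted in AIM serum-free medium for 72 h. Viability by CellTiter-Glo luminescence vs DMSO controls; single-concentration % remaining viability (1 μM or 1.667 μM), or GI50/LD50 from curves.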

Sequence of hNAMPT protein (P43490 whole entry): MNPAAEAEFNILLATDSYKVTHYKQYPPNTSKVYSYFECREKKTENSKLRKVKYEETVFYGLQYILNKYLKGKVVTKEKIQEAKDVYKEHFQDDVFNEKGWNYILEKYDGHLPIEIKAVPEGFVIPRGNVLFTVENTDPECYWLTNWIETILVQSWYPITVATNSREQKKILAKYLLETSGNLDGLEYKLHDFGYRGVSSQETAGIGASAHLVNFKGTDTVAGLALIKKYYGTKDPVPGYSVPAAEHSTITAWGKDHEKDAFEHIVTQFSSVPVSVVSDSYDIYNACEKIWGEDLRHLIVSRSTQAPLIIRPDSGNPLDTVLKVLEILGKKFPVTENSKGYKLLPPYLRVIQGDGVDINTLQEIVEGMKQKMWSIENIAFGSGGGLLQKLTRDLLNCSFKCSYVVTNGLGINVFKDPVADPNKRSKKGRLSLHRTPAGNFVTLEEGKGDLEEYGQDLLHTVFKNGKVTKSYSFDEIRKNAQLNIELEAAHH

Row | SMILES | IC50 (hNAMPT protein; NAMPT IC50 range class) [nM] | inhibition at 1 µM (hNAMPT protein; compound concentration 1 μM) [%] | inhibition at 1 µM (PC3 cells) [%] | inhibition at 1 µM (hNAMPT protein; NAMPT inhibition at compound concentration 1 μM) [%] | IC50 (hNAMPT protein; NAMPT inhibition, IC50 range class) [nM] | inhibition at 1.667 µM (PC3 cells) [%]
1 | O=C(NCc1ccccn1)c1ccc2nc(-c3ccccc3)c(-c3ccccc3)nc2c1 [Compound I-76, 2,3-diphenyl-N-(pyridin-2-ylmethyl)quinoxaline-6-carboxamide] | 2000 to 10000 | 29 | 92 | – | – | –
2 | COc1cc(-c2nc3cc(C(=O)NCCCc4nnc[nH]4)ccc3nc2-c2ccc(F)cc2)c(F)cn1 [Compound I-515, 3-(5-fluoro-2-methoxypyridin-4-yl)-2-(4-fluorophenyl)-N-[3-(4H-1,2,4-triazol-3-yl)propyl]quinoxaline-6-carboxamide] | – | – | – | 75 | 100 to 500 | 1
3 | CC(C)(C)OC(=O)NCC1CCN(C2CCN(c3nc4ccc(C(=O)NCCCn5ccnc5)cc4nc3-c3ccccc3)CC2)CC1 [Compound I-27, tert-butyl{[1′-(6-{[3-(1H-imidazol-1-yl)propyl]carbamoyl}-3-phenylquinoxalin-2-yl)-1,4′-bipiperidin-4-yl]methyl}carbamate] | < 100 | 102 | -1 | – | – | –
4 | O=C(NCCCn1ccnc1)c1ccc2nc(-c3ccccn3)c(-c3ccccc3)nc2c1 [Compound I-92, N-[3-(1H-imidazol-1-yl)propyl]-3-phenyl-2-(pyridin-2-yl)quinoxaline-6-carboxamide] | 1000 to 2000 | 48 | -7 | – | – | –
5 | COc1cccc(-c2nc3cc(C(=O)NCCCc4cccnc4)ccc3nc2N2CCCCC2)c1 [Compound I-197, 3-(3-methoxyphenyl)-2-(piperidin-1-yl)-N-[3-(pyridin-3-yl)propyl]quinoxaline-6-carboxamide] | < 100 | > 99 | – | – | – | 2
6 | COc1cccc(-c2nc3cc(C(=O)NCCc4cccnc4)ccc3nc2N2CCOCC2)c1 [Compound I-189, 3-(3-methoxyphenyl)-2-(morpholin-4-yl)-N-[2-(pyridin-3-yl)ethyl]quinoxaline-6-carboxamide] | < 100 | 91 | – | – | – | 2
7 | NS(=O)(=O)c1cccc(-c2nc3ccc(C(=O)NCCCn4ccnc4)cc3nc2-c2ccccc2)c1 [Compound I-89, N-[3-(1H-imidazol-1-yl)propyl]-3-phenyl-2-(3-sulfamoylphenyl)quinoxaline-6-carboxamide] | 100 to 500 | 68 | -7 | – | – | –
8 | O=C(NCCCn1ccnc1)c1ccc2nc(-c3ccccc3)c(N3CCC(O)C3)nc2c1 (stereo not drawn) [Compound I-153, 3-(3-hydroxypyrrolidin-1-yl)-N-[3-(1H-imidazol-1-yl)propyl]-2-phenylquinoxaline-6-carboxamide] | 2000 to 10000 | 22 | 14 | – | – | –
9 | O=C(NCCc1ncc[nH]1)c1ccc2nc(-c3ccc(F)cc3)c(-c3cccc(Cl)c3)nc2c1 [Compound I-376, 3-(3-chlorophenyl)-2-(4-fluorophenyl)-N-[2-(1H-imidazol-2-yl)ethyl]quinoxaline-6-carboxamide] | 500 to 1000 | 30 | – | – | – | 52
10 | O=C(NCCCc1ncc[nH]1)c1ccc2nc(-c3ccc(F)cc3)c(-c3ccc(Cl)cc3)nc2c1 [Compound I-361, 3-(4-chlorophenyl)-2-(4-fluorophenyl)-N-[3-(1H-imidazol-2-yl)propyl]quinoxaline-6-carboxamide] | < 100 | 98 | – | – | – | 1
11 | O=C(NCCCn1ccnc1)c1ccc2nc(-c3ccccc3)c(-c3cccc(OC(F)(F)F)c3)nc2c1 [Compound I-95, N-[3-(1H-imidazol-1-yl)propyl]-2-phenyl-3-[3-(trifluoromethoxy)phenyl]quinoxaline-6-carboxamide] | 500 to 1000 | 61 | 1 | – | – | –
12 | O=C(NCCCn1ccnc1)c1ccc2nc(-c3cncnc3)c(-c3ccccc3)nc2c1 [Compound I-242, N-[3-(1H-imidazol-1-yl)propyl]-3-phenyl-2-(pyrimidin-5-yl)quinoxaline-6-carboxamide] | 1000 to 2000 | 45 | -7 | – | – | –
